From PubChem BioAssay AID1918998 (Molecular Pharmacology Branch, DTP, NCI, 2023)
Values joined by “and” are separate entries in the source; they are usually repeats but may differ in a detail not shown here. Identical values can stand only once.

Test system: 521955-158-R2-J5-PDC complex spheroid growth
Assay: Anticancer human tumor 521955-158-R2-J5-PDC patient-derived pancreatic carcinoma cell line growth inhibition [AhR]
Details: for viability, T/C: stronger effect = lower value; active = viability on the fitted dose curve at most 10% of control; inactive = the rest
Description: Multicellular complex tumor spheroid response to aryl hydrocarbon receptor antagonists in combination with a variety of drugs and investigational agents in selected tumor cell lines
The current study was undertaken to assess response to aryl hydrocarbon receptor antagonists in combination with standard-of-care drugs and investigational agents in solid tumor complex spheroid models. Complex spheroids include a stromal component modeled by human endothelial cells (HUVEC) and fibroblasts modeled by human mesenchymal stem cells (MSCs). The concentration ranges selected for each drug and investigational agent were based upon clinically achievable concentrations if the clinical Cmax of the agent was known.
Compounds. The drugs and investigational agents: BAY 2416964 (NSC825713), GNF351 (NSC835774), CH-223191 (NSC835775), CPI-455 (NSC825282), aza-TdCyd (NSC777586), decitabine (NSC127716), belinostat (NSC758774), entinostat (NSC756642), pevonedistat (NSC761192), tazemetostat (NSC777109), talazoparib (NSC765396), olaparib (NSC753686), selinexor (NSC780203), nedisertib (M3814, NSC802822), bortezomib (NSC756655), venetoclax (NSC766270), doxorubicin (NSC123127), elimusertib (BAY189344, NSC800525), ceralasertib (AZD6738, NSC777638), TAK-243 (NSC785004), alisertib (NSC759677), etoposide (NSC141540), topotecan (NSC609699), eribulin (NSC707389), gemcitabine (NSC613327), carboplatin (NSC241240), cisplatin (NSC119875), and SN-38 (NSC673596) were obtained from the National Cancer Institute (NCI) Developmental Therapeutics Program Chemical Repository (32). The FDA-approved anticancer drug set is available from the Developmental Therapeutics Program at https://dtp.cancer.gov/organization/dscb/obtaining/available plates.htm. […] The stock solutions were prepared in dimethyl sulfoxide (DMSO, Sigma-Aldrich, St. Louis, MO, cat. D2650), except for the platinum compounds which were prepared in saline (Quality Biological, Gaithersburg, MD, cat. 114-055-101), at 800-fold the tested concentration and stored at -70 degrees C prior to their use. All drugs and investigational agents were tested over a range starting from a high concentration at or near the clinical Cmax and decreasing in half-log increments. If the clinical Cmax for an agent had not been determined, the highest concentration tested was 10 microM (Table 1).
Cell Culture. All cells were maintained in an incubator at 37 degrees C and 5% CO2 with 95% humidity. The PDC lines were cultured according to standard operating procedures established by the NCI PDMR (https://pdmr.cancer.gov). Briefly, all PDCs were thawed and cultured in Matrigel-coated flasks prepared with a working solution of 1X Ham's F-12 nutrient mix, without supplementation (Invitrogen, Waltham, MA, cat. 11765054), 100 U/mL penicillin-streptomycin (Invitrogen, cat. 15140122), and 2.5% Matrigel (Corning Inc., Corning, NY, cat. 354248) for the first three passages. All PDCs were cultured in complete DMEM/F-12 media containing advanced DMEM/F-12 (Invitrogen, cat. 12634028), 4.9% defined fetal bovine serum, heat inactivated (HyClone Laboratories Inc., Logan, UT, cat. SH30070.03HI), 389 ng/mL hydrocortisone (Sigma-Aldrich, cat. H4001), 9.7 ng/mL human EGF recombinant protein (Invitrogen, cat. PHG0313), 23.4 microg/mL adenine (Sigma-Aldrich, cat. A2786), 97.3 U/mL penicillin-streptomycin (Invitrogen, cat. 15140122), 1.9 mM L-glutamine (Invitrogen, cat. 25030081), and 9.7 microM Y-27632 dihydrochloride (Tocris Bioscience, Bristol, United Kingdom, cat. 1254). The PDCs were cultured in complete DMEM/F12 media without 10 microM Y-27632 dihydrochloride for at least two passages prior to the screen. The established cell lines NCI-H1341 and […] were cultured in DMEM/F-12, HEPES (Invitrogen, cat. 11330032), 5% defined fetal bovine serum (HyClone Laboratories Inc., cat. SH30070.03), ITS premix universal culture supplement [insulin (5 microg/mL), transferrin (5 microg/mL), and selenious acid (5 ng/mL)] […]

[1] = curve of first compound, second compound 0.1 µM
[2] = curve of first compound, second compound 0.316 µM
[3] = curve of first compound, second compound 1 µM
[4] = curve of first compound, second compound 3.16 µM
[5] = curve of first compound, second compound 10 µM
[6] = second compound 0.1 µM, first compound 0.0316 µM
[7] = second compound 0.1 µM, first compound 0.1 µM
[8] = second compound 0.1 µM, first compound 0.316 µM
[9] = second compound 0.1 µM, first compound 1 µM
[10] = second compound 0.316 µM, first compound 0.0316 µM
[11] = second compound 0.316 µM, first compound 0.1 µM
[12] = second compound 0.316 µM, first compound 0.316 µM
[13] = second compound 0.316 µM, first compound 1 µM
[14] = second compound 1 µM, first compound 0.0316 µM
[15] = second compound 1 µM, first compound 0.1 µM
[16] = second compound 1 µM, first compound 0.316 µM
[17] = second compound 1 µM, first compound 1 µM
[18] = second compound 3.16 µM, first compound 0.0316 µM
[19] = second compound 3.16 µM, first compound 0.1 µM
[20] = second compound 3.16 µM, first compound 0.316 µM
[21] = second compound 3.16 µM, first compound 1 µM
[22] = second compound 10 µM, first compound 0.0316 µM
[23] = second compound 10 µM, first compound 0.1 µM
[24] = second compound 10 µM, first compound 0.316 µM
[25] = second compound 10 µM, first compound 1 µM
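Throughout, for viability, T/C: spheroids mix tumor cells with HUVEC endothelium and human MSC stroma; luminescence taken as viability surrogate after a week of drug exposure.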

CCN(c1cc(-c2ccc(CN3CCOCC3)cc2)cc(C(=O)NCc2c(C)cc(C)[nH]c2=O)c1C)C1CCOCC1 + Cc1ccccc1N=Nc1ccc(NC(=O)c2ccnn2C)c(C)c1
> 3000 nM: IC50 [1] | IC50 [2] | IC50 [3] | IC50 [4] | IC50 [5]
inactive: viability, T/C (second compound 0.1 µM, first compound 0.00949 µM) 123% | viability, T/C (second compound 0.1 µM, first compound 0.03 µM) 110% | viability, T/C (second compound 0.1 µM, first compound 0.0949 µM) 103% | viability, T/C (second compound 0.1 µM, first compound 0.3 µM) 89.1% | viability, T/C (second compound 0.1 µM, first compound 0.949 µM) 74.4% | viability, T/C (second compound 0.1 µM, first compound 3 µM) 79.9% | viability, T/C (second compound 0.316 µM, first compound 0.00949 µM) 111% | viability, T/C (second compound 0.316 µM, first compound 0.03 µM) 106% | viability, T/C (second compound 0.316 µM, first compound 0.0949 µM) 110% | viability, T/C (second compound 0.316 µM, first compound 0.3 µM) 83.1% | viability, T/C (second compound 0.316 µM, first compound 0.949 µM) 76.6% | viability, T/C (second compound 0.316 µM, first compound 3 µM) 84.3% | viability, T/C (second compound 1 µM, first compound 0.00949 µM) 96.6% | viability, T/C (second compound 1 µM, first compound 0.03 µM) 113% | viability, T/C (second compound 1 µM, first compound 0.0949 µM) 97.2% | viability, T/C (second compound 1 µM, first compound 0.3 µM) 83.6% | viability, T/C (second compound 1 µM, first compound 0.949 µM) 95.7% | viability, T/C (second compound 1 µM, first compound 3 µM) 87.6% | viability, T/C (second compound 3.16 µM, first compound 0.00949 µM) 126% | viability, T/C (second compound 3.16 µM, first compound 0.03 µM) 128% | viability, T/C (second compound 3.16 µM, first compound 0.0949 µM) 128% | viability, T/C (second compound 3.16 µM, first compound 0.3 µM) 125% | viability, T/C (second compound 3.16 µM, first compound 0.949 µM) 102% | viability, T/C (second compound 3.16 µM, first compound 3 µM) 112% | viability, T/C (second compound 10 µM, first compound 0.00949 µM) 164% | viability, T/C (second compound 10 µM, first compound 0.03 µM) 153% | viability, T/C (second compound 10 µM, first compound 0.0949 µM) 166% | viability, T/C (second compound 10 µM, first compound 0.3 µM) 150% | viability, T/C (second compound 10 µM, first compound 0.949 µM) 126% | viability, T/C (second compound 10 µM, first compound 3 µM) 122%

CC1COCCN1c1cc(-c2ccnn2C)c2ccnc(-c3ccn[nH]3)c2n1 (configuration not stated) + Cc1ccccc1N=Nc1ccc(NC(=O)c2ccnn2C)c(C)c1
active: viability, T/C [17] 13.8%
149 nM: IC50 [1]
101 nM: IC50 [5]
143 nM: IC50 [4]
152 nM: IC50 [3]
154 nM: IC50 [2]
inactive: viability, T/C (second compound 0.1 µM, first compound 0.00316 µM) 128% | viability, T/C (second compound 0.1 µM, first compound 0.01 µM) 116% | viability, T/C [6] 122% | viability, T/C [7] 66.6% | viability, T/C [8] 19.4% | viability, T/C [9] 17.9% | viability, T/C (second compound 0.316 µM, first compound 0.00316 µM) 122% | viability, T/C (second compound 0.316 µM, first compound 0.01 µM) 116% | viability, T/C [10] 127% | viability, T/C [11] 70% | viability, T/C [12] 17.9% | viability, T/C [13] 15.2% | viability, T/C (second compound 1 µM, first compound 0.00316 µM) 123% | viability, T/C (second compound 1 µM, first compound 0.01 µM) 138% | viability, T/C [14] 109% | viability, T/C [15] 71% | viability, T/C [16] 14.2% | viability, T/C (second compound 3.16 µM, first compound 0.00316 µM) 144% | viability, T/C (second compound 3.16 µM, first compound 0.01 µM) 131% | viability, T/C [18] 145% | viability, T/C [19] 66.4% | viability, T/C [20] 13.4% | viability, T/C [21] 14.2% | viability, T/C (second compound 10 µM, first compound 0.00316 µM) 134% | viability, T/C (second compound 10 µM, first compound 0.01 µM) 154% | viability, T/C [22] 108% | viability, T/C [23] 54.5% | viability, T/C [24] 12.4% | viability, T/C [25] 15.4%

Nc1ccccc1NC(=O)c1ccc(CNC(=O)OCc2cccnc2)cc1 + Cc1cncc(-c2nc(NCCc3c[nH]c4ccccc34)c3ncn(C(C)C)c3n2)c1
5350 nM: IC50 [4]
5510 nM: IC50 [1]
active: viability, T/C (second compound 10 µM, first compound 10 µM) 2.9%
1020 nM: IC50 [5]
inactive: viability, T/C [6] 108% | viability, T/C [7] 106% | viability, T/C [8] 125% | viability, T/C [9] 94.7% | viability, T/C (second compound 0.1 µM, first compound 3.16 µM) 68.4% | viability, T/C (second compound 0.1 µM, first compound 10 µM) 31.5% | viability, T/C [10] 117% | viability, T/C [11] 134% | viability, T/C [12] 126% | viability, T/C [13] 103% | viability, T/C (second compound 0.316 µM, first compound 3.16 µM) 77.7% | viability, T/C (second compound 0.316 µM, first compound 10 µM) 30.4% | viability, T/C [14] 133% | viability, T/C [15] 139% | viability, T/C [16] 155% | viability, T/C [17] 108% | viability, T/C (second compound 1 µM, first compound 3.16 µM) 73.4% | viability, T/C (second compound 1 µM, first compound 10 µM) 30.5% | viability, T/C [18] 138% | viability, T/C [19] 143% | viability, T/C [20] 135% | viability, T/C [21] 110% | viability, T/C (second compound 3.16 µM, first compound 3.16 µM) 69.9% | viability, T/C (second compound 3.16 µM, first compound 10 µM) 27.2% | viability, T/C [22] 135% | viability, T/C [23] 125% | viability, T/C [24] 101% | viability, T/C [25] 48.8% | viability, T/C (second compound 10 µM, first compound 3.16 µM) 17.7%
6110 nM: IC50 [2]
5740 nM: IC50 [3]

Cn1ncnc1C1c2n[nH]c(=O)c3cc(F)cc(c23)NC1c1ccc(F)cc1 (configuration not stated)
> 100 nM: IC50 (curve of compound)
inactive: viability, T/C (compound 0.000316 µM) 106% and 64.7% and 90.7% | viability, T/C (compound 0.001 µM) 103% and 97.9% and 110% | viability, T/C (compound 0.00316 µM) 94.6% and 105% and 89.1% | viability, T/C (compound 0.01 µM) 94.8% and 75% and 89.5% | viability, T/C (compound 0.0316 µM) 85.7% and 73.9% and 97.8% | viability, T/C (compound 0.1 µM) 84.5% and 74% and 80.7%
